Where two headings read alike, the source gives them in different places.
Legend:
[1] = ABTS radical scavenging antioxidant assay; design: ABTS AA (%) antioxidant activity percentage: concentration or dose not given beside the values; details: for ABTS antioxidant activity: Trolox equivalent per gram of sample, mean ± SD, n=3; for ABTS AA (%) antioxidant activity percentage: compared to ascorbic acid (=100)
Description: (§1) all of analytical grade. An electrothermal 9100 (UK) was used for the determination of melting points (uncorrected). A Jenway model 6800 spectrophotometer was utilized for recording UV spectra. A Tecan, microplate reader, ((Infinite F50, Switzerland)) was used to measure the absorbances. A Bruker NMR system was used for 1H-NMR (400 MHz) and 13C-NMR (100 MHz).
(§2) The NMR spectra were determined in CD3OH and DMSO-d6. Chemical shifts are given in δ (ppm) relative to the internal standard TMS. Phenolic acids and flavonoids used in HPLC analysis as well as all other reagents for biological investigations were obtained from Sigma Chemical Company […]
(§3) Determination of the antioxidant activity
(§4) 2,2`-Azino-bis(3-ethylbenzothiazoline-6-sulfonic acid) (ABTS), ferric reducing antioxidant power (FRAP), and oxygen radical absorbance capacity (ORAC) assays were performed according to the previously published procedures. Ascorbic acid was used as a reference antioxidant […]
drug. […]

[2] = Ferric reducing antioxidant power (FRAP) assay; design: FRAP AA (%) antioxidant activity percentage: concentration or dose not given beside the values; details: for FRAP antioxidant activity: Trolox equivalent per gram of sample, mean ± SD, n=3; for FRAP AA (%) antioxidant activity percentage: compared to ascorbic acid (=100)
Description: as §1, §2, §3, §4
drug. […]

[3] = Oxygen radical absorbance capacity (ORAC) assay; details: for ORAC antioxidant activity: Trolox equivalent per gram of sample, mean ± SD, n=3; for ORAC AA (%) antioxidant activity percentage: compared to ascorbic acid (=100)
Description: as §1, §2, §3, §4
drug. […]

pancreatic α-amylase = target: T1, pancreatic α-amylase (Sus scrofa, UniProt P00690); test: α-Amylase inhibitory activity (starch substrate); assay type: biochemical, porcine; details: isolated compounds, Table S7; read-out: Inhibition (IC50) α-Amylase
T1 construct: pancreatic α-amylase (ex -porcine pancreas, EC 3.2.1.1, Sigma); purchased Sigma; host or cells: porcine pancreas
T1 sequence (P00690 16-511): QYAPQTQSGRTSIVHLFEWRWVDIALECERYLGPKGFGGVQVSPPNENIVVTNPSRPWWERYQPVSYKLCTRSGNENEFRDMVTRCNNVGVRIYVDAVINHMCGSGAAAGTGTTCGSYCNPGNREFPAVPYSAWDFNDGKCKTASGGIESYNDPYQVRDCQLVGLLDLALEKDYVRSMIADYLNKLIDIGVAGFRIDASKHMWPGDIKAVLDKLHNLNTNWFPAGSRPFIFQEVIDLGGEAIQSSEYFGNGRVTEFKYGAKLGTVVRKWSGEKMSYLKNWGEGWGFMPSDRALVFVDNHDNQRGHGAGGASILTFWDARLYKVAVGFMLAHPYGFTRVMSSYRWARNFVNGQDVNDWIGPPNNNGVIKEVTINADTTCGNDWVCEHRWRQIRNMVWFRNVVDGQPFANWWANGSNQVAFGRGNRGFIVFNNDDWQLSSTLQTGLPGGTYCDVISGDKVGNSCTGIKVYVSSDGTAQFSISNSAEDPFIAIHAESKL
Description: (§5) Phenolic acids and flavonoids used in HPLC analysis as well as all other reagents for biological investigations were obtained from Sigma Chemical Company […]
(§6) Inhibitory activity against key enzymes related to metabolic syndrome (MS) All assays were performed in 96-well plates. Stock solutions of the extract (100 mg/mL), fractions (100 mg/mL), and isolated compounds (1000 µM) were prepared. Tested samples that exceeded […]
(§7) inhibitory concentration (IC50). The percentage of enzyme inhibition was calculated according to […]
(§8) % Inhibition = (A−B) − (C−D) x 100 […]
α-Amylase inhibitory activity
α-Amylase inhibition assays were performed according to a previously described method. The tested samples we re incubated with pancreatic α-amylase (ex -porcine pancreas, EC 3.2.1.1, Sigma) followed by the addition of starch and iodine -potassium iodide solution for colo r development.
Starch [50 μL, 1% phosphate-buffered saline (PBS)] was mixed as substrate with 13 U mL−1 pancreatic α-amylase prepared in PBS, and 50 μL of test solution. A blank was performed using PBS. To initiate the reaction, the enzyme was added to the assay solution after being pre-incubated separately at 37 °C in a water bath for 10 min. Dinitrosalicylic acid reagent (1 mL) was added and […]
heated at 85 °C for 15 min. Then, it was cooled to room temperature and distilled water (1 mL) […]
was added. […] The absorbance was recorded at 540 nm.
Pancreatic lipase inhibitory activity […]

[4] = target: T2, porcine pancreatic lipase (Sus scrofa, UniProt P00591); test: Pancreatic lipase inhibitory activity; assay type: biochemical; details: isolated compounds, Table S7; read-out: Inhibition (IC50) Lipase
T2 construct: purchased Abnova
T2 sequence (P00591 1-450): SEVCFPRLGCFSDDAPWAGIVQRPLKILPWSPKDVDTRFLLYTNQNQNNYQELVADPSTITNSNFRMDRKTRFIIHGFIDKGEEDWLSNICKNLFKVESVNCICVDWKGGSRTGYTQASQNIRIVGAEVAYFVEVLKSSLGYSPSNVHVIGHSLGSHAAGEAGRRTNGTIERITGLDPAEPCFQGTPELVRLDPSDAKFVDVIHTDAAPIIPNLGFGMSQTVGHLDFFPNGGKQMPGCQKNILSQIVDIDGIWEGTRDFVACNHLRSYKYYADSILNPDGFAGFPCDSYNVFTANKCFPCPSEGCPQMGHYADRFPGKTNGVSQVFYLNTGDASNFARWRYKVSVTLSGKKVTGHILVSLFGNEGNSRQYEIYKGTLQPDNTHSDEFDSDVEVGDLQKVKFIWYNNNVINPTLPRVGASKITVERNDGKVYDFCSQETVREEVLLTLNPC
Description: as §5, §6, §7, §8
Pancreatic lipase inhibitory activity
The pancreatic lipase inhibitory activity was assessed using p-nitrophenyl dodecanoate (p-NPD) as substrate and porcine pancreatic lipase (Abnova, Taipei, Taiwan) which was described […]
previously. […] The tested samples were diluted in DMSO were incubated with 10 g L−1 PL (diluted in 0.05 mol L−1 Tris-HCl buffer pH 8.0, containing […]
in 0.5% TritonX 100) (m v−1) was added to initiate the reaction. The absorbances were measured

α-glucosidase = target: T3, α-glucosidase (Saccharomyces cerevisiae, UniProt P53341); test: biochemical; details: isolated compounds, Table S7
T3 construct: purchased Sigma
Description: as §5, §6, §7
% Inhibition = (A−B) − (C−D) x 100
A is the activity of the enzyme without tested samples, B is the control of A with neither tested samples nor enzyme, C, and D denote the activity of the test solutions with and without the tested […]
α-Glucosidase inhibitory activity
α-Glucosidase inhibition assays were performed according to a previously described method.
The tested samples were mixed with glutathione, α-glucosidase solution (Saccharomyces cerevisiae, EC 3.2.1.20, Sigma) in phosphate buffer , and the chromogenic substrate p-nitrophenyl-D-glucopyranoside (pNPG). Tested samples (50 μL) were incubated with α-glucosidase (100 μL.
0.6 U mL−1) in the presence of phosphate buffer (0.1 M, pH 6.9) for 10 min at 37 °C. Fifty μL of […] pNPG in phosphate buffer (pH 6.9) was added, and the mixture was incubated again for 12 min at 37 °C. Enzyme activity was evaluated by measuring ρ-nitrophenol release from the ρNPG […]
Absorbance at 405 nm was measured. […]

[5] = Inhibition (IC50) α-Glucosidase

T3 sequence (P53341 whole entry): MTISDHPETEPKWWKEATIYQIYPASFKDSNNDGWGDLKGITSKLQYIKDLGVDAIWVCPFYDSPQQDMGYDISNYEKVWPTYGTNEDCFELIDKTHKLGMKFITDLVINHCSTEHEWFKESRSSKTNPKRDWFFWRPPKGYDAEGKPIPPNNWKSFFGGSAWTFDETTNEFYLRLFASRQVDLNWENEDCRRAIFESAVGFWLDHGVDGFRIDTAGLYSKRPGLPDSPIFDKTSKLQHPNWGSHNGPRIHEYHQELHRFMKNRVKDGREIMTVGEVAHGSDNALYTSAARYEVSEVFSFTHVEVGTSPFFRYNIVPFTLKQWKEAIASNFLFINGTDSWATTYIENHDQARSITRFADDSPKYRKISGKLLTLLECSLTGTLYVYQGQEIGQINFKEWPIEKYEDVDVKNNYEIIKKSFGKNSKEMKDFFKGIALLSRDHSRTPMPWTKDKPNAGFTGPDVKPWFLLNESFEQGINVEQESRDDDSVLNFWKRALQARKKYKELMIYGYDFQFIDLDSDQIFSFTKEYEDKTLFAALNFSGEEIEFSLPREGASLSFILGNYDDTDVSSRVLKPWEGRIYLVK

| SMILES | ABTS antioxidant activity [1] | ABTS AA (%) antioxidant activity percentage [1] | FRAP antioxidant activity [2] | FRAP AA (%) antioxidant activity percentage [2] | ORAC antioxidant activity [3] | ORAC AA (%) antioxidant activity percentage [3] | IC50 (pancreatic α-amylase) | IC50 [4] | IC50 (α-glucosidase; [5]) | IC50 (α-glucosidase; read-out: Inhibition (IC50) α-Glucosidase) | ABTS antioxidant activity ([1]; listed as Cinnamic acid (P6)) | FRAP antioxidant activity ([2]; listed as Cinnamic acid (P6)) | ORAC antioxidant activity ([3]; listed as Cinnamic acid (P6)) |
| --- | --- | --- | --- | --- | --- | --- | --- | --- | --- | --- | --- | --- | --- |
| C[C@@H]1O[C@@H](OC[C@H]2O[C@@H](Oc3c(-c4ccc(O)c(O)c4)oc4cc(O)cc(O)c4c3=O)[C@H](O)[C@@H](O)[C@@H]2O)[C@H](O)[C@H](O)[C@H]1O [P1, rutin] | 180.29±1.08 μM TE/g | 62.64% | 99.28 ±0.98 μM TE/g | 63.96% | 266.30±0.75 μM TE/g | 68.25% | 3540 ± 210 nM | 980 ± 670 nM | – | – | – | – | – |
| O=c1c(O[C@@H]2O[C@H](CO)[C@@H](O)[C@H](O)[C@H]2O)c(-c2ccc(O)c(O)c2)oc2cc(O)cc(O)c12 [P2, isoquercitrin] | 240.75±0.28 μM TE/g | 83.66% | 137.27±0.53 μM TE/g | 88.44% | 346.28±0.29 μM TE/g | 88.74% | 1540 ± 180 nM | 570 ± 30 nM | 1120 ± 380 nM | – | – | – | – |
| COc1cc(-c2oc3cc(O)cc(O)c3c(=O)c2O[C@@H]2O[C@H](CO)[C@@H](O)[C@H](O)[C@H]2O)ccc1O [P3, isorhamnetin-3-O-β-D-glucopyranoside] | 229.71±0.38 μM TE/g | 79.82% | 125.08±0.72 μM TE/g | 80.58% | 320.78±0.55 μM TE/g | 82.21% | 2310 ± 870 nM | 780 ± 750 nM | – | 1370 ± 860 nM | – | – | – |
| O=C(/C=C/c1ccc(O)c(O)c1)O[C@@H]1C[C@](O)(C(=O)O)C[C@@H](O)[C@H]1O [P4, chlorogenic acid] | – | – | – | – | – | – | 3780 ± 190 nM | 1310 ± 290 nM | – | – | – | – | – |
| O=C(O)/C=C/c1ccccc1 [P6, cinnamic acid] | 250.28±0.21 μM TE/g | 86.97% | 141.26±0.91 μM TE/g | 91.01% | 362.55±1.20 μM TE/g | 92.91% | 1020 ± 630 nM | 350 ± 520 nM | 750 nM | – | 250.28 ± 0.21 μM TE/g | 141.26 ± 0.91 μM TE/g | 362.55 ± 1.20 μM TE/g |

Reference: article PMC10363080, “Modulatory Effect of Pyrus pyrifolia Fruit and its Phenolics on Key Enzymes against Metabolic Syndrome: Bioassay-Guided Approach, HPLC Analysis, and In Silico Study” (Plant Foods for Human Nutrition (Dordrecht, Netherlands), 2023)
